≈ marks a conversion by molar mass, not a printed value.
Assays:
[1] = system: Bacillus subtilis; assay: Antibacterial activity against Bacillus subtilis ATCC 6633 by Mueller-Hinton broth method; assay type: functional
[2] = system: Bacillus subtilis; assay: Bactericidal activity against Bacillus subtilis ATCC 6633 by Mueller-Hinton broth method; assay type: functional
[3] = system: MCF7; assay: Anticancer activity against human MCF7 cells assessed as inhibition of cell growth incubated for 24 hrs by MTT assay; assay type: functional, cell-based; details: MCF7, 24 h
[4] = system: Escherichia coli; assay: Antibacterial activity against Escherichia coli assessed as zone of inhibition incubated for 24 hrs by agar diffusion method; assay type: functional
[5] = system: Pseudomonas aeruginosa; assay: Antibacterial activity against Pseudomonas aeruginosa assessed as zone of inhibition incubated for 24 hrs by agar diffusion method; assay type: functional
[6] = system: MCF7; assay: Cytotoxicity against human MCF7 cells assessed as reduction in cell viability incubated for 72 hrs by MTT assay; assay type: functional, cell-based; details: MCF7, 72 h
[7] = system: HCT-116; assay: Cytotoxicity against human HCT-116 cells assessed as reduction in cell viability incubated for 72 hrs by MTT assay; assay type: functional, cell-based; details: HCT-116, 72 h
[8] = Antioxidant activity assessed as DPPH radical scavenging activity measured after 30 mins by spectrophotometric analysis; assay type: functional
[9] = Antioxidant activity assessed as DPPH radical scavenging activity measured after 30 mins; assay type: functional
[10] = system: Plasmodium falciparum; assay: Antimalarial activity against Plasmodium falciparum; assay type: functional, organism-based
[11] = system: Mycobacterium tuberculosis; assay: Antitubercular activity against Mycobacterium tuberculosis H37 Rv ATCC 27294 incubated for 7 days by Alamar blue assay; assay type: functional; details: H37 Rv ATCC 27294, 168 h, time 7 day
[12] = system: HCT-116; assay: Anticancer activity against human HCT-116 cells assessed as inhibition of cell growth incubated for 24 hrs by MTT assay; assay type: functional, cell-based; details: HCT-116, 24 h
[13] = Antioxidant activity assessed as DPPH radical scavenging activity; assay type: functional
[14] = system: Corynebacterium ammoniagenes; assay: Bactericidal activity against Brevibacterium ammoniagenes ATCC 6872 assessed as inhibition of bacterial growth incubated for 48 hrs by broth macrodilution method; assay type: functional
[15] = system: Micrococcus luteus; assay: Antibacterial activity against Micrococcus luteus ATCC 4698 assessed as inhibition of bacterial growth incubated for 48 hrs by broth macrodilution method; assay type: functional
[16] = system: Staphylococcus aureus; assay: Bactericidal activity against Staphylococcus aureus ATCC 12598 assessed as inhibition of bacterial growth incubated for 48 hrs by broth macrodilution method; assay type: functional
[17] = system: Bacillus subtilis; assay: Bactericidal activity against Bacillus subtilis ATCC 9372 assessed as inhibition of bacterial growth incubated for 48 hrs by broth macrodilution method; assay type: functional
[18] = system: Corynebacterium ammoniagenes; assay: Antibacterial activity against Brevibacterium ammoniagenes ATCC 6872 assessed as inhibition of bacterial growth incubated for 48 hrs by broth macrodilution method; assay type: functional
[19] = system: Micrococcus luteus; assay: Bactericidal activity against Micrococcus luteus ATCC 4698 assessed as inhibition of bacterial growth incubated for 48 hrs by broth macrodilution method; assay type: functional
[20] = system: Staphylococcus aureus; assay: Antibacterial activity against Staphylococcus aureus ATCC 12598 assessed as inhibition of bacterial growth incubated for 48 hrs by broth macrodilution method; assay type: functional
[21] = system: Bacillus subtilis; assay: Antibacterial activity against Bacillus subtilis ATCC 9372 assessed as inhibition of bacterial growth incubated for 48 hrs by broth macrodilution method; assay type: functional
[22] = Antioxidant activity assessed as ABTS radical scavenging activity; assay type: functional
[23] = Antioxidant activity in ethanol solution by DPPH scavenging assay; assay type: functional
[24] = Antioxidant activity in DOPC loaded liposomes by DPPH scavenging assay; assay type: physicochemical
[25] = system: Human alphaherpesvirus 2; assay: Antiviral activity against Herpes simplex viruses type 2 MS infected in Monkey BGM cells; assay type: functional, organism-based; details: Human alphaherpesvirus 2, MS
[26] = system: HeLa; assay: Anticancer activity against human HeLa cells assessed as inhibition of cell growth incubated for 24 hrs by MTT assay; assay type: functional, cell-based
[27] = Inhibition of recombinant HIV-1 integrase using 32-P labeled dBY-1 as substrate assessed as disintegration of substrate incubated for 1 hrs; set-up: species or system Human immunodeficiency virus 1

CCCCCCCCCC[N+]1(C)CCCCC1
MIC [1]: 1000 µM
MBC [2]: 1000 µM

COc1cc([C@@H]2c3cc4c(cc3[C@H](O)[C@H]3COC(=O)[C@H]23)OCO4)cc(OC)c1OC [PODOFILOX]
IC50 [3]: 65 µM

COc1cc(C(=O)N/N=C/c2ccnc3ccccc23)cc(OC)c1OC
inhibition zone (IZ) [4]: 17 mm
inhibition zone (IZ) [5]: 17 mm

COC1=CC(=O)C[C@@H](C)[C@]12Oc1c(Cl)c(OC)cc(OC)c1C2=O [GRISEOFULVIN]
inhibition zone (IZ) [4]: 22 mm

O=C(N/N=C/c1c[nH]c2ccc(Br)cc12)c1cc(O)c(O)c(O)c1
IC50 [6]: 6.7 µM
IC50 [7]: 13.3 µM
IC50 [8]: 172 µM

C/C(=N/NC(=O)c1cc(O)c(O)c(O)c1)c1cc(Cl)ccc1O
IC50 [9]: 1.14 µg/mL (≈ 3.39 µM)

CCCCCCOC(=O)c1cc(O)c(O)c(O)c1 [HEXYL GALLATE]
IC50 [10]: 110 µM

NNC(=O)c1ccncc1 [ISONIAZID]
MIC [11]: 0.56 µg/mL (≈ 4.08 µM)

N#Cc1c(NC(=O)c2cc(O)c(O)c(O)c2)sc2c1CCCCC2
IC50 [12]: 3.2 µg/mL (≈ 9.29 µM)

O=C(O)c1cc(OCCNC(=O)c2cc(OCCNC(=O)c3cc(OCNC(=O)c4cc(O)c(O)c(O)c4)cc(OCNC(=O)c4cc(O)c(O)c(O)c4)c3)cc(OCCNC(=O)c3cc(OCNC(=O)c4cc(O)c(O)c(O)c4)cc(OCNC(=O)c4cc(O)c(O)c(O)c4)c3)c2)cc(OCCNC(=O)c2ccc(OCCNC(=O)c3cc(OCNC(=O)c4cc(O)c(O)c(O)c4)cc(OCNC(=O)c4cc(O)c(O)c(O)c4)c3)c(OCCNC(=O)c3cc(OCNC(=O)c4cc(O)c(O)c(O)c4)cc(OCNC(=O)c4cc(O)c(O)c(O)c4)c3)c2)c1
ED50 [13]: 4.7 µM

COc1cccc(OC)c1C(=O)N[C@@H]1C(=O)N2[C@@H]1SC(C)(C)[C@@H]2C(=O)O [METHICILLIN]
MBC [14]: 25 µg/mL (≈ 65.7 µM)
MIC [15]: 6.25 µg/mL (≈ 16.4 µM)
MBC [16]: > 6.25 µg/mL
MBC [17]: 6.25 µg/mL (≈ 16.4 µM)
MIC [18]: 25 µg/mL (≈ 65.7 µM)
MBC [19]: 6.25 µg/mL (≈ 16.4 µM)
MIC [20]: 1.56 µg/mL (≈ 4.1 µM)
MIC [21]: 1.56 µg/mL (≈ 4.1 µM)

Oc1cc(-c2nnc(Cc3nnc(-c4cc(O)c(O)c(O)c4)o3)o2)cc(O)c1O
IC50 [22]: 24.7 µM
IC50 [13]: 14.8 µM

Oc1cc(-c2nnc(CC(O)(Cc3nnc(-c4cc(O)c(O)c(O)c4)o3)c3nnco3)o2)cc(O)c1O
IC50 [22]: 125 µM
IC50 [13]: 16 µM

COc1ccc(O)c(/C(C)=N\NC(=O)c2cc(O)c(O)c(O)c2)c1
IC50 [9]: 1.14 µg/mL (≈ 3.43 µM)

COc1cc(C(=O)N/N=C/c2cc3ccccc3[nH]2)cc(OC)c1OC
inhibition zone (IZ) [4]: 17 mm
inhibition zone (IZ) [5]: 17 mm

COC(=O)c1cc(O)c(O)c(O)c1 [GALLIC ACID METHYL ESTER]
IC50 [23]: 7.2 µM
IC50 [10]: 30 µM
IC50 [24]: 8.41 µM
IC50 [25]: 0.224 µM

O=C1O[C@H]([C@@H](O)CO)C(O)=C1O [ASCORBIC ACID]
IC50 [22]: 30.1 µM
IC50 [9]: 2.26 µg/mL (≈ 12.8 µM)
IC50 [13]: 18 µM
IC50 [8]: 981 µM

CCCCCCCCCC[N+](C)(C)CCO
MIC [1]: 1200 µM
MBC [2]: 1200 µM

COc1cc(C(=O)N/N=C/c2c(CO)cnc(C)c2O)cc(OC)c1OC
inhibition zone (IZ) [4]: 17 mm
inhibition zone (IZ) [5]: 17 mm

CC1(C)S[C@@H]2[C@H](NC(=O)[C@H](N)c3ccccc3)C(=O)N2[C@H]1C(=O)O [AMPICILLIN]
inhibition zone (IZ) [4]: 15 mm
inhibition zone (IZ) [5]: 15 mm

COc1cc(/C=C\c2cc3c(cc2OC(C)=O)CC[C@@H]2[C@@H]3CC[C@]3(C)[C@@H](OC(C)=O)CC[C@@H]23)cc(OC)c1OC
IC50 [3]: 7.5 µM

COc1cc(C(=O)N/N=C/c2ccc(-c3ccccn3)cc2)cc(OC)c1OC
inhibition zone (IZ) [4]: 17 mm
inhibition zone (IZ) [5]: 17 mm

O=C(O)c1cc(O)c(O)c(O)c1 [GALLIC ACID]
IC50 [26]: 26.3 µg/mL (≈ 155 µM)
IC50 [12]: 41.8 µg/mL (≈ 246 µM)

COc1cc2c(cc1Cc1cccc(Cl)c1F)c(=O)c(C(=O)O)cn2[C@H](CO)C(C)C [ELVITEGRAVIR]
IC50 [27]: > 100 µM
